Data from patent US20250353864A1, “INDAZOLE CONTAINING MACROCYCLES AND THEIR USE” (BLOSSOMHILL THERAPEUTICS, INC., priority 2022, published 2025).

What was measured:
Assay type in all cases: biochemical
CLK1 = CLK1 (Homo sapiens (Human), UniProt P49759); experiment: Inhibition of CLK1 kinase activity evaluated at Nanosyn (ADP-Glo); conditions: ADP-Glo luminescence
Outline: (§1)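 Kinase and substrate in pH 7.5 HEPES buffer (5 mM MgCl2, 0.01% Triton X-100, 0.1% BSA) with compound at 1% DMSO; reaction started with ATP, incubated for an assay-specific time. ADP formed detected by ADP-Glo luminescence; %-inhibition versus DMSO and no-enzyme controls.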

[1] = target: EGFR Δ746-750/C797S mutant (Homo sapiens (Human), UniProt P00533, C797S/DEL746-750); experiment: HotSpot radiometric kinase assay, EGFR Δ746-750/C797S mutant; conditions: 10 μM ATP
Chain of EGFR Δ746-750/C797S mutant (P00533 other isoform, or with tags, fused parts or gaps C797S/del 1-668/del 746-750 limits assumed): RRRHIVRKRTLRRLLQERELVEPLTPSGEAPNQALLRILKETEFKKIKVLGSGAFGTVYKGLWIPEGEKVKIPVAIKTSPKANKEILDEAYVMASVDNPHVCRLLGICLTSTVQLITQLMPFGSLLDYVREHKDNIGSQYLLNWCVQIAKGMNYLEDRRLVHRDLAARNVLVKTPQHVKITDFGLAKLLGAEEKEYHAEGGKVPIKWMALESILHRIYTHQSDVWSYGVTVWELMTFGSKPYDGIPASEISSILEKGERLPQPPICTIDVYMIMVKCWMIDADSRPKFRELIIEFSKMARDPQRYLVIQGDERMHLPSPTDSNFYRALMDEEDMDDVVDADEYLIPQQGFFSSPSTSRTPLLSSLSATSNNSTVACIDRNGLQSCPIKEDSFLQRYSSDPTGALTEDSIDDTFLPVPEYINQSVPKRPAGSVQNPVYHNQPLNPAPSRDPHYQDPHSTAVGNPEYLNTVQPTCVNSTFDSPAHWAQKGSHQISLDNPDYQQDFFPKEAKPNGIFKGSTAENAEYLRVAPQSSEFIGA
Outline: (§2)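 IC50 values come from curve fits of ^33P incorporation captured on P81 filters after acid washing. Kinase reactions ran 120 min at room temperature with 10 μM ATP, added about 20 min after compound. Buffer was Hepes pH 7.5 containing Mg, DTT and 1% DMSO.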

EGFR WT = EGFR WT (Homo sapiens (Human), UniProt P00533); experiment: HotSpot radiometric kinase assay (Reaction Biology), EGFR WT; conditions: 10 μM ATP
Chain of EGFR WT (P00533 25-1210): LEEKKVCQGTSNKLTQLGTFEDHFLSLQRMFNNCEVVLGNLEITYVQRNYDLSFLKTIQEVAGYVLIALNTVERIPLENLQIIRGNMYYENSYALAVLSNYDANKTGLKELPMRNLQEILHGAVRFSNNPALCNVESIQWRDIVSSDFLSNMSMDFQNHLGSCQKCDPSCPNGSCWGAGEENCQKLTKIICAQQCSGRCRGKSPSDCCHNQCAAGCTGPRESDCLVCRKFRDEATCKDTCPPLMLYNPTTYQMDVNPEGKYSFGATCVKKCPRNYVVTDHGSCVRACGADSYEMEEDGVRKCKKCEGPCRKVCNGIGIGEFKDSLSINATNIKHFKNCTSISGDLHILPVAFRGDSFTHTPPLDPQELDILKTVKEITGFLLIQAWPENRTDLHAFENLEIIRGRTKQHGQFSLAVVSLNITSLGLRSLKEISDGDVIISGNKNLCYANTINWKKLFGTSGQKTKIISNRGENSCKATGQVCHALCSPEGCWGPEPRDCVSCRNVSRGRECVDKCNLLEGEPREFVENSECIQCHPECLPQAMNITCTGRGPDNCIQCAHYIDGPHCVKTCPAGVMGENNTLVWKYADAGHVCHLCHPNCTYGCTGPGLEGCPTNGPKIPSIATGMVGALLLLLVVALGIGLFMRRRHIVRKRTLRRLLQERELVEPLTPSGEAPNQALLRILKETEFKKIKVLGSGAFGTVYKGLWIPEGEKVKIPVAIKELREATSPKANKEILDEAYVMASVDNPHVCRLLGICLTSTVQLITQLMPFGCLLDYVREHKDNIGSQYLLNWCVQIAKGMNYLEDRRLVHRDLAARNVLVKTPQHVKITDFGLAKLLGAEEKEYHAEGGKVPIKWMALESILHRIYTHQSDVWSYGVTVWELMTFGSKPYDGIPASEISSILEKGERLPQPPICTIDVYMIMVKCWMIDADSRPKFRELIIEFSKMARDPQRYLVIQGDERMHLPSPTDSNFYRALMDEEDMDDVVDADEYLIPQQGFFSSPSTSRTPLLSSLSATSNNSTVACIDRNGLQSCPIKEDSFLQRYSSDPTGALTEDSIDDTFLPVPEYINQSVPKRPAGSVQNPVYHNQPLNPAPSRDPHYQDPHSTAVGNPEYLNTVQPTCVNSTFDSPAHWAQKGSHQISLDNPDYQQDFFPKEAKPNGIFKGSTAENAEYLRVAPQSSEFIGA
Outline: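 IC50 values derive from curve fits of 33P incorporation measured by P81 filter binding. ATP was 10 μM final; incubation lasted 120 min at room temperature after ~20 min compound preincubation.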

CLK3 = CLK3 (Homo sapiens (Human), UniProt P49761); experiment: Inhibition of CLK3 kinase activity evaluated at Nanosyn (ADP-Glo); conditions: ADP-Glo luminescence
Chain of CLK3 (P49761 whole entry): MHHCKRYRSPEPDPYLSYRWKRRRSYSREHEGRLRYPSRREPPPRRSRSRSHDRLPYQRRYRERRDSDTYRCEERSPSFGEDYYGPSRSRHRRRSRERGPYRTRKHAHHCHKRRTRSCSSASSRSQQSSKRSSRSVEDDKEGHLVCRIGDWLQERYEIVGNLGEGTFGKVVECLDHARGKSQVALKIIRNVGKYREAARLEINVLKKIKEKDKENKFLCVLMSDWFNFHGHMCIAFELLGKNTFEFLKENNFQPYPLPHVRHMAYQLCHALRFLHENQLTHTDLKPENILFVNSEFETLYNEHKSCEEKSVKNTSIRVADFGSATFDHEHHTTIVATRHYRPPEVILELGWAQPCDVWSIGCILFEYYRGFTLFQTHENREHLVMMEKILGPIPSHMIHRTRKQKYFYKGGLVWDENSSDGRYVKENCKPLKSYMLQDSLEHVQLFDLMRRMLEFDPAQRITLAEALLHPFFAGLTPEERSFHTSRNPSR
Outline: as §1

CLK2 = CLK2 (Homo sapiens (Human), UniProt P49760); experiment: Inhibition of CLK2 kinase activity evaluated at Nanosyn (ADP-Glo); conditions: ADP-Glo luminescence
Outline: as §1

EGFR L858R/T790M mutant = EGFR L858R/T790M mutant (Homo sapiens (Human), UniProt P00533, L858R/T790M); experiment: HotSpot radiometric kinase assay, EGFR L858R/T790M mutant; conditions: 10 μM ATP
Outline: as §2

EGFR Δ746-750 mutant = EGFR Δ746-750 mutant (Homo sapiens (Human), UniProt P00533, DEL746-750); experiment: HotSpot radiometric kinase assay, EGFR Δ746-750 mutant; conditions: 10 μM ATP
Outline: as §2

EGFR L858R mutant = EGFR L858R mutant (Homo sapiens (Human), UniProt P00533, L858R); experiment: HotSpot radiometric kinase assay, EGFR L858R mutant; conditions: 10 μM ATP
Chain of EGFR L858R mutant (P00533 25-1210 L858R): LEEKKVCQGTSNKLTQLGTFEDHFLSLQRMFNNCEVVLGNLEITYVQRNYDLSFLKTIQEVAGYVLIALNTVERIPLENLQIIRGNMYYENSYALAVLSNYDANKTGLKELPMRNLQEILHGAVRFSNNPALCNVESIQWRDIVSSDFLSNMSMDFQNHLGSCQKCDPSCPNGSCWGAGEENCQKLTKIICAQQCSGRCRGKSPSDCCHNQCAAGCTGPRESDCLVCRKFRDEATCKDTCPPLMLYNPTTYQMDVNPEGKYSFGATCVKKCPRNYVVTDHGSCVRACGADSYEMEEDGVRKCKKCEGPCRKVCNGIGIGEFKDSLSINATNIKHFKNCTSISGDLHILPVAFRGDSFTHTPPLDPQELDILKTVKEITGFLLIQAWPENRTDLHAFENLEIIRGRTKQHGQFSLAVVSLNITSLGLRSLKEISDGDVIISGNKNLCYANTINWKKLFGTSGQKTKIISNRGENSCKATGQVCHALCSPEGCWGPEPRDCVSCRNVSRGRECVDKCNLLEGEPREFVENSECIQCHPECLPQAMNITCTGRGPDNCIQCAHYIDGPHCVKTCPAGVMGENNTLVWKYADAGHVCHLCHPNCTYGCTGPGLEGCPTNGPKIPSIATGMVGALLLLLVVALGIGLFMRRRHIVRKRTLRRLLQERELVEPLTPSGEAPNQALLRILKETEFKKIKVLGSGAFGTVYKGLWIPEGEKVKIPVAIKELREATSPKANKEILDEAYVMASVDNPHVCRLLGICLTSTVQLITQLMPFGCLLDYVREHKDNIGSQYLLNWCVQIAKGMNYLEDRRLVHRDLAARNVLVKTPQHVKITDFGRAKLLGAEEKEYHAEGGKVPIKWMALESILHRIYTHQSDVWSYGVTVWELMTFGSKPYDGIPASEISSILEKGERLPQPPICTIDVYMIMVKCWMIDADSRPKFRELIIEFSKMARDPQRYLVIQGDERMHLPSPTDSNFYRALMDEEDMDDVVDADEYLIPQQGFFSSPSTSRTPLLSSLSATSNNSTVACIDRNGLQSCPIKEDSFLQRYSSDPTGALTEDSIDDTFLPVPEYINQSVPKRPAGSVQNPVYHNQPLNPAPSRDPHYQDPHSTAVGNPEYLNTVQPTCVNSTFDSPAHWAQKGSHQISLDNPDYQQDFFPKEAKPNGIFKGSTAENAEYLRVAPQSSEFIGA
Outline: as §2

[2] = target: EGFR L858R/T790M/C797S mutant (Homo sapiens (Human), UniProt P00533, C797S/L858R/T790M); experiment: HotSpot radiometric kinase assay, EGFR L858R/T790M/C797S mutant; conditions: 10 μM ATP
Chain of EGFR L858R/T790M/C797S mutant (P00533 25-1210 T790M/C797S/L858R): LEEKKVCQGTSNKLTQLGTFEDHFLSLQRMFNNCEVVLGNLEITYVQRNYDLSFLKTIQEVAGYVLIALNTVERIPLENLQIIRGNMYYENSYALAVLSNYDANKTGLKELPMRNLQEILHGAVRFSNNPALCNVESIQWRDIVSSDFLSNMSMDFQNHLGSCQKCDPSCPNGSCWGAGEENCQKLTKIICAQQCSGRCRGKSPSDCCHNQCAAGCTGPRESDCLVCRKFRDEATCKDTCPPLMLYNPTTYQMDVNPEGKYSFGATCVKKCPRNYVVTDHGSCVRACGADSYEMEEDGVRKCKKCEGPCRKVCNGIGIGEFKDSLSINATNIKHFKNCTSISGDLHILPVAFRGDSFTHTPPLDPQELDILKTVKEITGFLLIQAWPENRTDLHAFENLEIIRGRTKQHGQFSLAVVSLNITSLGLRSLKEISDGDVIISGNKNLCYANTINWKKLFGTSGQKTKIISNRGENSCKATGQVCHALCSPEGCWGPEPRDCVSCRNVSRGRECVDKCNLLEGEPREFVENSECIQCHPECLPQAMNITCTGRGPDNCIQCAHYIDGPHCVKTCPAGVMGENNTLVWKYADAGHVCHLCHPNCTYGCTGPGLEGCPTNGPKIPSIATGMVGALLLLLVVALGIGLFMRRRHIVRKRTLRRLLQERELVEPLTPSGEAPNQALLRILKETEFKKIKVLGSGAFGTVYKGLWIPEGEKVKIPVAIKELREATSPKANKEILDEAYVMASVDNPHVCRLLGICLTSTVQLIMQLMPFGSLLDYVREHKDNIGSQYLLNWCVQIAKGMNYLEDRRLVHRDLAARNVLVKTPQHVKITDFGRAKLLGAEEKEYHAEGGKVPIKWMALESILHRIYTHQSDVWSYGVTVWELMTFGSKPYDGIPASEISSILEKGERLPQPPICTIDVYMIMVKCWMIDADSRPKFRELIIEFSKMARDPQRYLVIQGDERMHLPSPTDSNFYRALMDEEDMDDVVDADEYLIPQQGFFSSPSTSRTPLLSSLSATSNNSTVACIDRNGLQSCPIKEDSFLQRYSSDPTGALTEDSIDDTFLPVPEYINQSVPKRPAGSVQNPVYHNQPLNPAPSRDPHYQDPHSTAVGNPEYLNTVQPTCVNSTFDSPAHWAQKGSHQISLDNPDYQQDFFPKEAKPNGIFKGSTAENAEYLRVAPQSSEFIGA
Outline: as §2

CLK4 = CLK4 (Homo sapiens (Human), UniProt Q9HAZ1); experiment: Inhibition of CLK4 kinase activity evaluated at Nanosyn (ADP-Glo); conditions: ADP-Glo luminescence
Outline: as §1

EGFR (D770_N771insNPG) = EGFR (D770_N771insNPG) (Homo sapiens (Human), UniProt P00533, INS770NPG); experiment: HotSpot radiometric kinase assay, EGFR (D770_N771insNPG); conditions: 10 μM ATP, read-out: EGFR (Δ770_N771insNPG) IC50
Outline: as §2

Chain of CLK1 (P49759 whole entry): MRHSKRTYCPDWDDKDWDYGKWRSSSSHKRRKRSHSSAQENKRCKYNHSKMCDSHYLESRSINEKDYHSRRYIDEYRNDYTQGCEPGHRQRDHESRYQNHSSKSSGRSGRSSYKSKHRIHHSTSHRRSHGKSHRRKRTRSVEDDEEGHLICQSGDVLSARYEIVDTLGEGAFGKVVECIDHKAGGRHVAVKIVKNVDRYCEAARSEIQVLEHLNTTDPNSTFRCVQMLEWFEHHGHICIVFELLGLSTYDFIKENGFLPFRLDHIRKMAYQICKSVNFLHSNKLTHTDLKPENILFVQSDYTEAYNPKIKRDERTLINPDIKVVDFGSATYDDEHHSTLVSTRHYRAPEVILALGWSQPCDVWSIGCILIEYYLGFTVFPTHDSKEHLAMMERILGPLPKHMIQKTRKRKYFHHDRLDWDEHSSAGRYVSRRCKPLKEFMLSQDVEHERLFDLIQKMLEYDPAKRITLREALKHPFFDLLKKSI

Row | SMILES | IC50 (CLK1) [nM] | IC50 [1] [nM] | IC50 (EGFR WT) [nM] | IC50 (CLK3) [nM] | IC50 (CLK2) [nM] | IC50 (EGFR L858R/T790M mutant) [nM] | IC50 (EGFR Δ746-750 mutant) [nM] | IC50 (EGFR L858R mutant) [nM] | IC50 [2] [nM] | IC50 (CLK4) [nM] | IC50 (EGFR (D770_N771insNPG)) [nM]
1 | Cc1nn(CCO)c2c1/C=C/c1n[nH]c3ccc(cc13)-c1cnn(C)c1O[C@@H](C)CN(C)C2 [Example 61, 2-[(10S,17E)-8,10,12,16-tetramethyl-2,8,10,11,12,13-hexahydro-14H-3,5-ethenotripyrazolo[3,4-f:3′,4′-j:4″,3″- n][1,4]oxazacyclopentadecin-14-yl]ethan-1-ol] | 0.21 | 1.96 | 6.19 | 21.4 | 0.06 | 0.29 | 1.08 | 1.23 | 0.17 | 0.76 | 9.21
2 | CCOc1nn(C)c2c1/C=C/c1n[nH]c3cc(F)c(cc13)-c1cnn(C)c1OC1CCCN(C2)C1 (stereo in doubt) [Example 178] | 1.08 | 5.25 | 22.2 | 61.8 | 2.38 | 4.35 | 6.9 | 8.73 | 19.3 | 1.56 | 232
3 | Cc1nn(C[C@H](C)O)c2c1/C=C/c1n[nH]c3ccc(cc13)-c1cnn(C)c1O[C@@H](C)CN(C)C2 [Example 123, (2S)-1-[(10S,17E)-8,10,12,16-tetramethyl-2,8,10,11,12,13-hexahydro-14H-3,5-ethenotripyrazolo[3,4f:3′,4′-j:4″,3″-n][1,4]oxazacyclopentadecin-14-yl]propan-2-ol] | 0.17 | 0.8 | 11.4 | 171 | 0.1 | 0.33 | 1.3 | 1.5 | 0.75 | 0.45 | 10.1
4 | C[C@H]1CN(C)Cc2onc(C3CC3)c2/C=C/c2n[nH]c3ccc(cc23)-c2cnn(C)c2O1 [Example 173, (10S,17E)-16-cyclopropyl-8,10,12-trimethyl-2,8,10,11,12,13-hexahydro-3,5-etheno[1,2]oxazolo[5,4-f]dipyrazolo[3,4-j:4′,3′-n][1,4]oxazacyclopentadecine] | 0.7 | 127 | > 1000 | 1000 | 0.89 | 45.5 | 533 | 513 | 27.4 | 1.26 | > 1000

Now from value to compound:

Row | IC50 (CLK1) [nM] | IC50 [1] [nM] | IC50 (EGFR WT) [nM] | IC50 (CLK3) [nM] | IC50 (CLK2) [nM] | IC50 (EGFR L858R/T790M mutant) [nM] | IC50 (EGFR Δ746-750 mutant) [nM] | IC50 (EGFR L858R mutant) [nM] | IC50 [2] [nM] | IC50 (CLK4) [nM] | IC50 (EGFR (D770_N771insNPG)) [nM] | SMILES
5 | 0.24 | 0.72 | 0.87 | 23 | 0.04 | 0.48 | 0.3 | 0.22 | 0.46 | 0.52 | 2.55 | CCOc1nn(CCO)c2c1/C=C/c1n[nH]c3ccc(cc13)-c1cnn(C)c1O[C@@H](C)CN(C(C)C)C2 [Example 151, 2-[(10S,17E)-16-ethoxy-8,10-dimethyl-12-(propan-2-yl)-2,8,10,11,12,13-hexahydro-14H-3,5-ethenotripyrazolo[3,4-f:3′,4′-j:4″,3″-n][1,4]oxazacyclopentadecin-14-yl]ethan-1-o]
6 | 0.9 | 22.9 | 329 | 1000 | 4.29 | 9.39 | 40.1 | 66.5 | 21.8 | 1.3 | 500 | CCOc1nn(CCO)c2c1/C=C/c1n[nH]c3ccc(cc13)-c1cnn(C)c1OC[C@H](CC)N(C)C2 [Example 259, 2-[(11S,17E)-16-ethoxy-11-ethyl-8,12-dimethyl-2,8,10,11,12,13-hexahydro-14H-3,5-ethenotripyrazolo[3,4-f:3′,4′-j:4″,3″-n][1,4]oxazacyclopentadecin-14-yl]ethan-1-ol]
